# Reference: ChEMBL document CHEMBL4616673 (J Med Chem, 2020)
# pIC50: −log10 of the molar value.
# What was measured:
# [1] = target: T1, Dihydroorotate dehydrogenase (quinone), mitochondrial (Homo sapiens, UniProt Q02127); experiment: Inhibition of human DHODH using dihydroorotate as substrate and CoQ10 as co-substrate preincubated for 30 mins followed by substrate addition by DCIP coupled microplate reader assay
# MCF7 = experiment: Antiproliferative activity against human MCF7 cells assessed as reduction in cell viability measured after 48 hrs by MTT assay; assay type: functional, cell-based; conditions: Homo sapiens, MCF7, 48 h
# A549 = experiment: Antiproliferative activity against human A549 cells assessed as reduction in cell viability measured after 48 hrs by MTT assay; assay type: functional, cell-based; conditions: Homo sapiens, A549, 48 h
# NAMALVA = experiment: Antiproliferative activity against human NAMALWA cells assessed as reduction in cell viability measured after 48 hrs by MTT assay; assay type: functional, cell-based; conditions: Homo sapiens, NAMALVA, 48 h
# HeLa = experiment: Antiproliferative activity against human HeLa cells assessed as reduction in cell viability measured after 48 hrs by MTT assay; assay type: functional, cell-based; conditions: Homo sapiens, HeLa, 48 h
# A-375 = experiment: Antiproliferative activity against human A375 cells assessed as reduction in cell viability measured after 48 hrs by MTT assay; assay type: functional, cell-based; conditions: Homo sapiens, A-375, 48 h
# K562 = experiment: Antiproliferative activity against human K562 cells assessed as reduction in cell viability measured after 48 hrs by MTT assay; assay type: functional, cell-based; conditions: Homo sapiens, K562, 48 h
# Raji = experiment: Antiproliferative activity against human Raji cells assessed as reduction in cell viability measured after 48 hrs by MTT assay; assay type: functional, cell-based; conditions: Homo sapiens, Raji, 48 h
# [2] = Solubility of the compound in PBS; assay type: physicochemical
# HCT-116 = experiment: Antiproliferative activity against human HCT116 cells assessed as reduction in cell viability measured after 48 hrs by MTT assay; assay type: functional, cell-based; conditions: Homo sapiens, HCT-116, 48 h
# [3] = target: T1, Dihydroorotate dehydrogenase (quinone), mitochondrial; experiment: Inhibition of recombinant human DHODH expressed in baculovirus infected insect cells using dihydroorotate as substrate and decylubiquinone as co-substrate by 2,6-dichlorophenol-indophenol-coupled spectrophotometric analysis
# T1 sequence (Q02127 whole entry): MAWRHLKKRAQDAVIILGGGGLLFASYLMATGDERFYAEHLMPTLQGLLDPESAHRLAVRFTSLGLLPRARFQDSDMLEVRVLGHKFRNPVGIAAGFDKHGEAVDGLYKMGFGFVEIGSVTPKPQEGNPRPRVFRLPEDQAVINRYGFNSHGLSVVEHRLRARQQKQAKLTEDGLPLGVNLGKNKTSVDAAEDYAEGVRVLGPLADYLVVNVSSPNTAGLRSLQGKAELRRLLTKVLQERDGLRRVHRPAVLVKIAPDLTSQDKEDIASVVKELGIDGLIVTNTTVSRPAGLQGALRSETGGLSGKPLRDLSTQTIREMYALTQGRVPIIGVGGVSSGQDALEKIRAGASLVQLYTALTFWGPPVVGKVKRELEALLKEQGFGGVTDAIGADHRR
compound,measurement,setting,value
O=C1c2ccc(O)cc2C(=O)c2c1nnn2-c1cc(F)c(-c2ccccc2F)c(F)c1,pIC50,[1],< 6.00
OC1c2ccccc2C(O)c2c1nnn2-c1cc(F)c(-c2ccccc2F)c(F)c1 (centres undefined),pIC50,MCF7,< 5.00
same,pIC50,A549,< 5.00
same,pIC50,NAMALVA,< 5.00
same,pIC50,[1],8.29
same,pIC50,HeLa,< 5.00
same,pIC50,A-375,6.80
same,pIC50,K562,< 5.00
same,pIC50,Raji,< 5.00
same,solubility,[2],< 10 µg/mL
same,pIC50,HCT-116,6.24
COc1cc(-n2nnc3c2C(=O)c2ccccc2C3=O)ccc1-c1ccccc1,pIC50,MCF7,< 5.00
same,pIC50,A549,< 5.00
same,pIC50,NAMALVA,< 5.00
same,pIC50,[1],8.39
same,pIC50,HeLa,< 5.00
same,pIC50,A-375,8.00
same,pIC50,K562,6.68
same,pIC50,Raji,6.10
same,solubility,[2],15.4 µg/mL
same,pIC50,HCT-116,6.74
Cc1cc(-c2ccc(-n3nnc4c3C(=O)c3ccccc3C4=O)cc2)ccn1,pIC50,[1],< 6.00
O=C1C(O)=C(CC=C(Cl)Cl)C(=O)c2ccccc21,pIC50,[3],7.17
N#Cc1ccccc1-n1nnc2c1C(=O)c1ccccc1C2=O,pIC50,[1],< 6.00
Nc1ccc(-c2ccc(-n3nnc4c3C(=O)c3ccccc3C4=O)cc2)cc1,pIC50,MCF7,< 5.00
same,pIC50,A549,< 5.00
same,pIC50,NAMALVA,< 5.00
same,pIC50,[1],7.60
same,pIC50,HeLa,< 5.00
same,pIC50,A-375,5.72
same,pIC50,K562,6.62
same,pIC50,Raji,< 5.00
same,pIC50,HCT-116,< 5.00
O=C1c2ccccc2C(=O)c2c1nnn2-c1ccc(-c2cccc(F)c2)cc1,pIC50,[1],7.25
O=C1c2ccccc2C(=O)c2c1nnn2-c1nc2ccccc2[nH]1,pIC50,[1],< 6.00
O=C1c2ccccc2C(=O)c2c1nnn2-c1ccc(-c2cc(C(F)(F)F)cc(C(F)(F)F)c2)cc1,pIC50,[1],< 6.00
O=C1c2ccccc2C(=O)c2c1nnn2-c1cccc(O)c1,pIC50,[1],< 6.00
COC(=O)c1cccc(-c2ccc(-n3nnc4c3C(=O)c3ccccc3C4=O)cc2)c1,pIC50,[1],6.26
O=C1c2ccccc2C(=O)c2c1nnn2-c1cc(F)c(-c2cccc(CO)c2)c(F)c1,pIC50,MCF7,< 5.00
same,pIC50,A549,< 5.00
same,pIC50,NAMALVA,< 5.00
same,pIC50,[1],8.92
same,pIC50,HeLa,< 5.00
same,pIC50,A-375,7.52
same,pIC50,K562,< 5.00
same,pIC50,Raji,5.48
same,solubility,[2],14.6 µg/mL
same,pIC50,HCT-116,5.66
COc1cccc(-c2ccc(-n3nnc4c3C(=O)c3ccccc3C4=O)cc2)c1,pIC50,[1],7.00
CC(C)c1ccc(-c2c(F)cc(-n3nnc4c3C(=O)c3ccccc3C4=O)cc2F)cc1,pIC50,[1],7.12
Nc1cccc(-n2nnc3c2C(=O)c2ccccc2C3=O)c1,pIC50,[1],< 6.00
COC(=O)Cc1cccc(-c2c(F)cc(-n3nnc4c3C(=O)c3ccccc3C4=O)cc2F)c1,pIC50,MCF7,< 5.00
same,pIC50,A549,< 5.00
same,pIC50,NAMALVA,< 5.00
same,pIC50,[1],8.34
same,pIC50,HeLa,< 5.00
same,pIC50,A-375,6.38
same,pIC50,K562,5.62
same,pIC50,Raji,5.42
same,solubility,[2],< 10 µg/mL
same,pIC50,HCT-116,5.79
O=C1c2ccccc2C(=O)c2c1nnn2-c1ccc(-c2ccccc2O)cc1,pIC50,[1],6.64
O=C1CCCc2c1nnn2-c1cc(F)c(-c2ccccc2F)c(F)c1,pIC50,[1],< 6.00
O=C1c2ccccc2C(=O)c2c1nnn2-c1cc(F)c(-c2cccc(F)c2)c(F)c1,pIC50,MCF7,< 5.00
same,pIC50,A549,< 5.00
same,pIC50,NAMALVA,< 5.00
same,pIC50,[1],8.57
same,pIC50,HeLa,< 5.00
same,pIC50,A-375,6.72
same,pIC50,K562,< 5.00
same,pIC50,Raji,5.82
same,solubility,[2],< 10 µg/mL
same,pIC50,HCT-116,6.26
COCc1cccc(-c2c(F)cc(-n3nnc4c3C(=O)c3ccccc3C4=O)cc2F)c1,pIC50,MCF7,< 5.00
same,pIC50,A549,< 5.00
same,pIC50,NAMALVA,< 5.00
same,pIC50,[1],8.80
same,pIC50,HeLa,< 5.00
same,pIC50,A-375,6.74
same,pIC50,K562,< 5.00
same,pIC50,Raji,5.91
same,solubility,[2],< 10 µg/mL
same,pIC50,HCT-116,5.95
CC(C)c1ccc(-c2ccc(-n3nnc4c3C(=O)c3ccccc3C4=O)c(F)c2)cc1,pIC50,[1],< 6.00
Fc1ccccc1-c1c(F)cc(-n2cc(-c3ccccc3)nn2)cc1F,pIC50,[1],< 6.00
Nc1ccccc1-c1ccc(-n2nnc3c2C(=O)c2ccccc2C3=O)cc1,pIC50,MCF7,< 5.00
same,pIC50,A549,< 5.00
same,pIC50,NAMALVA,5.30
same,pIC50,[1],7.70
same,pIC50,HeLa,< 5.00
same,pIC50,A-375,5.71
same,pIC50,K562,5.67
same,pIC50,Raji,5.42
same,pIC50,HCT-116,5.64
O=C1c2ccccc2C(=O)c2c1nnn2-c1ccncc1,pIC50,[1],< 6.00
N#Cc1cccc(-n2nnc3c2C(=O)c2ccccc2C3=O)c1,pIC50,[1],< 6.00
COc1cc(-c2ccc(-n3nnc4c3C(=O)c3ccccc3C4=O)cc2)cc(OC)c1OC,pIC50,[1],< 6.00
CC(C)C1CC(=O)c2nnn(-c3cc(F)c(-c4ccccc4F)c(F)c3)c2C1 (centres undefined),pIC50,[1],6.28
O=C1c2cc(F)ccc2C(=O)c2c1nnn2-c1cc(F)c(-c2ccccc2F)c(F)c1,pIC50,[1],7.01
